Results from patent publication US20080161232A1, “C5a Receptor Antagonist” (JERINI AG, priority 2005, published 2008).
Starred links: 1 amine or outer side, 2 acyl side, 3 side chain; linkers in the order of their positions; H or OH if unused. Positions of bridges follow the written chain, without caps; N, C: chain ends. Non-standard residues stand in square brackets, D forms with d. Residues, ends and D or L forms follow the SMILES beside them. Groups on a side chain read outwards from the residue. ξ: configuration not given here. *: point of attachment. ξTrp(5-Me) = Cc1ccc2[nH]cc(CC(N)C(=O)O)c2c1; Phe(3-OMe) = COc1cccc(C[C@H](N)C(=O)O)c1; Phe(4-F) = N[C@@H](Cc1ccc(F)cc1)C(=O)O; Bta = N[C@@H](Cc1csc2ccccc12)C(=O)O; Hyp = O=C(O)[C@@H]1C[C@@H](O)CN1; PhLac = O=C(O)[C@@H](O)Cc1ccccc1; d(hLeu) = CC(C)CC[C@@H](N)C(=O)O; dCha = N[C@H](CC1CCCCC1)C(=O)O; NHCH2CH(OH)CH2OH = OCC(O)CN*; Nle = CCCC[C@H](N)C(=O)O; Orn = NCCC[C@H](N)C(=O)O; CO = O=C([*:1])[*:2]; Ms = CS(=O)(=O)*; Moc = COC(=O)*

Molecular target: T1, human C5aR(CD88) (Homo sapiens, UniProt P21730)
T1 construct: expressed in transfected cells; host or cells: rat basophilic leukemia cells (RBL)
T1 sequence (P21730 1-350): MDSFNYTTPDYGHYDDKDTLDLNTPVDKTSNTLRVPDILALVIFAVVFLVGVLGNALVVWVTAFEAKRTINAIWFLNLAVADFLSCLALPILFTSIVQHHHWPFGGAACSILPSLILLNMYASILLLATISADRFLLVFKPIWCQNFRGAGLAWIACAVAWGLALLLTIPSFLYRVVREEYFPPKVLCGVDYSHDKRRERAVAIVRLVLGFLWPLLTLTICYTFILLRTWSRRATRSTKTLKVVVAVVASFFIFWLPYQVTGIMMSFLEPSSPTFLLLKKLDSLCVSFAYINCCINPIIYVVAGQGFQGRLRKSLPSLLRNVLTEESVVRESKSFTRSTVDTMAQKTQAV
Assay: Determination of the IC50 value in an enzyme release assay (functional assay, antagonistic activity)
Type: cell-based
Settings: antagonistic activity; IC50 group in enzyme release assay, RBL cells expressing human C5aR(CD88); read-out: activity (group)

IC50 | Compound
0.05 to 0.2 µM | CC(=O)N[C@@H](Cc1ccccc1)C(=O)N[C@H]1CSSC[C@@H](C(N)=O)NC(=O)[C@H](Cc2ccccc2)NC(=O)[C@H](Cc2csc3ccccc23)NC(=O)[C@@H](CC2CCCCC2)NC(=O)[C@@H]2CCCN2C1=O [Compound 172, Ac-Phe-[Cys-Pro-cha-Bta-Phe-Cys]-NH2] (Ac-FCP[dCha][Bta]FC-NH2; disulfide 2-7)
0.05 to 0.2 µM | CCCC[C@@H]1NC(=O)[C@H](Cc2c[nH]c3ccccc23)NC(=O)[C@@H](CCC(C)C)NC(=O)[C@@H]2C[C@@H](O)CN2C(=O)[C@@H](NC(=O)[C@@H](O)Cc2ccccc2)CCCNC1=O [Compound 392, Ohf-[Orn-Hyp-hle-Trp-Nle]] (H-[PhLac][Orn][Hyp][d(hLeu)]W[Nle]; lactam 2-C)
0.2 to 2 µM | CC(=O)N[C@@H](Cc1ccccc1)C(=O)N[C@@H](CCC(N)=O)C(=O)N1CCC[C@H]1C(=O)N[C@H](CC1CCCCC1)C(=O)N[C@@H](Cc1c[nH]c2ccccc12)C(=O)N[C@@H](Cc1ccccc1)C(N)=O [Compound 89, Ac-Phe-Gln-Pro-cha-Trp-Phe-NH2] (Ac-FQP[dCha]WF-NH2)
0.05 to 0.2 µM | COc1cccc(C[C@H](NC(C)=O)C(=O)N[C@@H](CCCN)C(=O)N2CCC[C@H]2C(=O)N[C@H](CCC(C)C)C(=O)N[C@@H](Cc2ccc(F)cc2)C(=O)N[C@@H](Cc2ccccc2)C(N)=O)c1 [Compound 164, Ac-Mmy-Orn-Pro-hle-Pff-Phe-NH2] (Ac-[Phe(3-OMe)][Orn]P[d(hLeu)][Phe(4-F)]F-NH2)
0.02 to 0.05 µM | CCCC[C@@H]1NC(=O)[C@H](Cc2c[nH]c3ccccc23)NC(=O)[C@@H](CCC(C)C)NC(=O)[C@@H]2CCCN2C(=O)[C@@H](NC(=O)[C@@H](N)Cc2ccccc2)CCCNC1=O [Compound 381, H-Phe-[Orn-Pro-hle-Trp-Nle]] (H-F[Orn]P[d(hLeu)]W[Nle]; lactam 2-C)
0.05 to 0.2 µM | CC(=O)N[C@@H](Cc1ccccc1)C(=O)N[C@@H](CCCN)C(=O)N1CCC[C@H]1C(=O)N[C@H](CCC(C)C)C(=O)NC(Cc1c[nH]c2ccc(C)cc12)C(=O)N[C@@H](Cc1ccccc1)C(N)=O (stereo partly drawn) [Compound 285, Ac-Phe-Orn-Pro-hle-Egc-Phe-NH2] (Ac-F[Orn]P[d(hLeu)][ξTrp(5-Me)]F-NH2)
0.05 to 0.2 µM | CCCC[C@@H]1NC(=O)[C@H](Cc2c[nH]c3ccccc23)NC(=O)[C@@H](CC2CCCCC2)NC(=O)[C@@H]2C[C@@H](OC(=O)NCC(O)CO)CN2C(=O)[C@@H](NC(=O)[C@H](Cc2ccccc2)NC(C)=O)CCCNC1=O (some centres unmarked) [Compound 6, Ac-Phe-[Orn-Hyp(CONH—CH2CH(OH)—CH2OH)-cha-Trp-Nle]] (Ac-F[Orn][Hyp]([CO-NHCH2CH(OH)CH2OH])[dCha]W[Nle]; lactam 2-C)
0.05 to 0.2 µM | CC(=O)N[C@@H](Cc1ccccc1)C(=O)N[C@@H](CCCN)C(=O)N1CCC[C@H]1C(=O)N[C@H](CCC(C)C)C(=O)N[C@@H](Cc1c[nH]c2ccccc12)C(=O)N[C@@H](Cc1ccccc1)C(N)=O [Compound 306, Ac-Phe-Orn-Pro-hle-Trp-Phe-NH2] (Ac-F[Orn]P[d(hLeu)]WF-NH2)
0.2 to 2 µM | CC(=O)N[C@@H](Cc1ccccc1)C(=O)N[C@H]1CCCNC(=O)[C@H](CCCCNC(=N)N)NC(=O)[C@H](Cc2c[nH]c3ccccc23)NC(=O)[C@@H](CC2CCCCC2)NC(=O)[C@@H]2CCCN2C1=O [compound 8]

Compound | IC50
CC(=O)N[C@@H](Cc1ccccc1)C(=O)N[C@@H](CCCNS(C)(=O)=O)C(=O)N1CCC[C@H]1C(=O)N[C@H](CC1CCCCC1)C(=O)N[C@@H](Cc1csc2ccccc12)C(=O)N[C@@H](Cc1ccccc1)C(N)=O [Compound 227, Ac-Phe-G23-Pro-cha-Bta-Phe-NH2] (Ac-F[Orn](Ms)P[dCha][Bta]F-NH2) | 0.05 to 0.2 µM
COC(=O)N[C@@H](Cc1ccccc1)C(=O)N[C@@H](CCCN)C(=O)N1CCC[C@H]1C(=O)N[C@H](CC1CCCCC1)C(=O)N[C@@H](Cc1csc2ccccc12)C(=O)N[C@@H](Cc1ccccc1)C(N)=O [Compound 129, Me-O—CO-Phe-Orn-Pro-cha-Bta-Phe-NH2] (Moc-F[Orn]P[dCha][Bta]F-NH2) | 0.05 to 0.2 µM
